According to the supplement of paper PMC10307832:

Tests used:
Test in all cases: relative viability (nuclei count vs DMSO), 5 days (fraction); higher = more cells survive
Sunitinib + Luminespib = compound: CCN(CC)CCNC(=O)c1c(C)[nH]c(/C=C2\C(=O)Nc3ccc(F)cc32)c1C [Sunitinib] + CCNC(=O)c1noc(-c2cc(C(C)C)c(O)cc2O)c1-c1ccc(CN2CCOCC2)cc1 [Luminespib] (partner 0.01 µM)
In short: (§1)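 A single step with final 0.05% Triton X-100, 1% formaldehyde and 1 ug/ml Hoechst fixed the cells and stained nuclei 5 days after treatment. Lung cancer cell lines in 1536-well plates had been treated by pin tool the day after seeding with one drug alone or a fixed anchor-drug dose plus five library-drug doses (not always all listed) in √10 steps, and nuclei were counted on 4× images. Relative viability is the ratio of nuclei in treated wells to nuclei in vehicle wells, taken as the median of duplicate plates.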

Sunitinib + Dasatinib = compound: CCN(CC)CCNC(=O)c1c(C)[nH]c(/C=C2\C(=O)Nc3ccc(F)cc32)c1C [Sunitinib] + Cc1nc(Nc2ncc(C(=O)Nc3c(C)cccc3Cl)s2)cc(N2CCN(CCO)CC2)n1 [Dasatinib] (partner 0.075 µM)
In short: as §1

Sunitinib + Foretinib = compound: CCN(CC)CCNC(=O)c1c(C)[nH]c(/C=C2\C(=O)Nc3ccc(F)cc32)c1C [Sunitinib] + COc1cc2c(Oc3ccc(NC(=O)C4(C(=O)Nc5ccc(F)cc5)CC4)cc3F)ccnc2cc1OCCCN1CCOCC1 [Foretinib] (partner 0.25 µM)
In short: as §1

Sunitinib + Decitabine = compound: CCN(CC)CCNC(=O)c1c(C)[nH]c(/C=C2\C(=O)Nc3ccc(F)cc32)c1C [Sunitinib] + Nc1ncn([C@H]2C[C@H](O)[C@@H](CO)O2)c(=O)n1 [Decitabine] (partner 2 µM)
In short: as §1

| Cell Line | relative viability (Sunitinib + Luminespib; first compound 0.06325 µM) | relative viability (Sunitinib + Luminespib; first compound 0.2 µM) | relative viability (Sunitinib + Luminespib; first compound 0.6325 µM) | relative viability (Sunitinib + Luminespib; first compound 2 µM) | relative viability (Sunitinib + Dasatinib; first compound 0.02 µM) | relative viability (Sunitinib + Dasatinib; first compound 0.06325 µM) | relative viability (Sunitinib + Dasatinib; first compound 0.2 µM) | relative viability (Sunitinib + Dasatinib; first compound 0.6325 µM) | relative viability (Sunitinib + Dasatinib; first compound 2 µM) | relative viability (Sunitinib + Foretinib; first compound 0.02 µM) | relative viability (Sunitinib + Foretinib; first compound 0.2 µM) | relative viability (Sunitinib + Foretinib; first compound 0.6325 µM) | relative viability (Sunitinib + Foretinib; first compound 2 µM) | relative viability (Sunitinib + Decitabine; first compound 0.02 µM) | relative viability (Sunitinib + Decitabine; first compound 0.06325 µM) | relative viability (Sunitinib + Decitabine; first compound 0.2 µM) | relative viability (Sunitinib + Decitabine; first compound 0.6325 µM) | relative viability (Sunitinib + Decitabine; first compound 2 µM) | relative viability (Sunitinib + Luminespib; first compound 0.02 µM) | relative viability (Sunitinib + Foretinib; first compound 0.06325 µM) |
| --- | --- | --- | --- | --- | --- | --- | --- | --- | --- | --- | --- | --- | --- | --- | --- | --- | --- | --- | --- | --- |
| NCI-H322M | 0.859 | 0.966 | 0.948 | 0.616 | 0.257 | 0.264 | 0.293 | 0.265 | 0.253 | 0.906 | 1.14 | 1.13 | 0.869 | 0.664 | 0.72 | 0.654 | 0.798 | 0.696 | – | – |
| NCI-H358 | 0.304 | 0.564 | 0.307 | 0.242 | 0.151 | 0.187 | 0.182 | 0.19 | 0.174 | 0.716 | 0.8 | 0.748 | 0.527 | 0.236 | 0.217 | 0.22 | 0.197 | 0.192 | 0.375 | 0.774 |
| NCI-H441 | 0.275 | 0.332 | 0.396 | 0.339 | 0.545 | 0.684 | 0.714 | 0.763 | 0.658 | 0.771 | – | 1.01 | 1.04 | 0.271 | 0.285 | 0.266 | 0.271 | 0.317 | 0.32 | 0.953 |
| NCI-H460 | 0.0388 | 0.0351 | 0.0528 | 0.0318 | 0.471 | 0.631 | 0.676 | 0.602 | 0.444 | 0.879 | 1.03 | 1.05 | 1.06 | 0.457 | 0.54 | 0.566 | 0.527 | 0.563 | 0.0352 | 1.08 |
| NCI-H520 | 0.231 | 0.214 | 0.22 | 0.228 | 0.226 | 0.186 | 0.18 | 0.224 | 0.217 | 0.593 | 0.798 | 1 | 0.605 | 0.487 | 0.499 | 0.55 | 0.577 | 0.537 | 0.22 | 0.843 |
| NCI-H596 | 1.05 | 1.09 | 1.03 | 0.941 | 0.599 | 0.731 | 0.709 | 0.709 | 0.467 | 0.688 | 0.779 | 0.849 | 0.649 | 0.895 | 0.902 | 1.16 | 1.01 | 0.962 | 0.884 | 0.949 |
| NCI-H647 | 0.143 | 0.131 | 0.137 | 0.154 | 0.164 | 0.291 | 0.228 | 0.183 | 0.161 | – | 1.34 | 1.13 | 1.21 | 0.329 | 0.47 | 0.512 | 0.537 | 0.41 | 0.232 | 1.03 |
| NCI-H650 | 0.83 | 0.766 | 0.803 | 0.716 | 0.491 | 0.523 | 0.41 | 0.533 | 0.476 | 1.03 | 1.06 | 1.11 | 0.975 | 0.341 | 0.291 | 0.321 | 0.325 | 0.321 | 0.914 | 1.01 |
| NCI-H661 | 0.934 | 0.949 | 0.896 | 0.83 | 0.923 | 1.12 | 1.06 | 1.07 | 1.1 | 1.06 | 1.01 | – | 1.04 | 0.509 | 0.578 | 0.544 | 0.56 | 0.597 | 0.896 | 1.07 |
| NCI-H727 | 0.498 | 0.456 | 0.457 | 0.313 | 0.343 | 0.432 | 0.472 | 0.404 | 0.275 | 0.926 | 1.12 | 0.979 | 0.788 | 0.837 | 0.836 | 0.857 | 0.754 | 0.889 | 0.429 | 0.837 |
| NCI-H838 | 0.328 | 0.301 | 0.261 | 0.234 | 0.324 | 0.293 | 0.322 | 0.291 | 0.285 | 1.04 | 1.14 | 1.08 | 0.826 | 0.447 | 0.489 | 0.476 | 0.485 | 0.448 | 0.351 | 1 |
| NCI-H1355 | 0.735 | 0.718 | 0.712 | 0.719 | 0.715 | 0.804 | 0.943 | 0.756 | 0.674 | 0.957 | – | – | 0.68 | 0.369 | 0.381 | 0.375 | 0.365 | 0.345 | 0.723 | 0.802 |
| NCI-H1395 | 0.375 | 0.723 | 0.706 | 0.602 | 0.394 | 0.463 | 0.453 | 0.406 | 0.266 | 0.955 | 1.05 | 1 | 1.14 | 0.712 | 0.659 | 0.721 | 0.72 | 0.639 | 0.72 | 0.996 |
| NCI-H1437 | 1.12 | 1.23 | 1.12 | 1.17 | 0.489 | 0.418 | 0.478 | 0.39 | 0.412 | 1.24 | 1.28 | 1.22 | 1.32 | 0.566 | 0.606 | 0.624 | 0.514 | 0.628 | 1.03 | 1.25 |
| NCI-H1650 | 0.201 | 0.206 | 0.198 | 0.217 | 0.321 | 0.337 | 0.309 | 0.358 | 0.268 | 1.23 | 1.09 | 0.977 | 1.08 | 0.45 | 0.379 | 0.315 | 0.475 | 0.416 | 0.219 | 1.14 |
| NCI-H1651 | 0.766 | 1.06 | 0.942 | 1.14 | 0.389 | 0.506 | 0.59 | 0.462 | 0.527 | 0.762 | 0.877 | 0.826 | 0.806 | 0.552 | 0.633 | 0.591 | 0.557 | 0.523 | 0.758 | 0.843 |
| NCI-H1666 | – | 1.07 | 1.07 | 1.12 | 0.77 | 0.948 | 0.936 | 0.862 | 0.942 | 0.912 | 1.05 | 1.04 | 1.01 | 0.905 | 0.884 | 0.738 | 0.698 | 0.735 | 0.983 | 1 |
